Laboratory results: patent publication US10206937B2, “Boronic acid derivatives and therapeutic uses thereof” (Qpex Biopharma, Inc., priority 2014, dated 2019)

Tested on: strains of Enterobacteriaceae producing various carbapenemases (class A, D and B; 104 strains)
Test: Antibiotics potentiation by Compound 27 (MIC; meropenem, doripenem, ertapenem, cefepime)
Assay type: cell-based
Settings: + 27 = with Compound 27 at fixed 4 μg/ml

With `C[C@@H](O)[C@H]1C(=O)N2C(C(=O)O)=C(S[C@@H]3CN[C@H](CNS(N)(=O)=O)C3)[C@H](C)[C@H]12` [D] the MIC (strain KP1081 Klebsiella pneumoniae (NDM-1, TEM-1, SHV-11, CMY-6, CTX-M-15)) was “Z (MIC of greater than 10 μg/mL)”, the MIC (strain KP1082 Klebsiella pneumoniae (KPC-2, SHV-1)) was “Y (MIC of 1 μg/mL to 10 μg/mL)” and the MIC (strain KP1083 Klebsiella pneumoniae (KPC-3, SHV-1, TEM-1)) was “Y (MIC of 1 μg/mL to 10 μg/mL)”. The MIC (strain KP1084 Klebsiella pneumoniae (KPC-3, SHV-11, TEM-1)) was “Z (MIC of greater than 10 μg/mL)”, the MIC (strain KP1086 Klebsiella pneumoniae (OXA-48, CTX-M-15, TEM, SHV)) was “Z (MIC of greater than 10 μg/mL)” and the MIC (strain KP1087 Klebsiella pneumoniae (KPC-2, CTX-M-15, SHV-11, TEM-1)) was “Z (MIC of greater than 10 μg/mL)”. The MIC (strain KP1088 Klebsiella pneumoniae (KPC-3, SHV-11, TEM-1)) was “Y (MIC of 1 μg/mL to 10 μg/mL)”, the MIC (strain KP1089 Klebsiella pneumonias (OXA-181, CTX-M-15, TEM, SHV)) was “Y (MIC of 1 μg/mL to 10 μg/mL)” and the MIC (strain KP1095 Klebsiella pneumoniae (KPC-2 TEM-1 SHV-1)) was “Y (MIC of 1 μg/mL to 10 μg/mL)”. For the same compound, the MIC (strain KP1096 Klebsiella pneumoniae (KPC-2 TEM-181 SHV-11)) was “Y (MIC of 1 μg/mL to 10 μg/mL)”, the MIC (strain KP1097 Klebsiella pneumonias (IMP-1)) was “Z (MIC of greater than 10 μg/mL)” and the MIC (strain KP1098 Klebsiella pneumoniae (IMP-26)) was “Z (MIC of greater than 10 μg/mL)”. The MIC (strain KP1104 Klebsiella pneumoniae (KPC TEM)) was “Z (MIC of greater than 10 μg/mL)”, the MIC (strain KP1105 Klebsiella pneumoniae (KPC TEM SHV)) was “Y (MIC of 1 μg/mL to 10 μg/mL)” and the MIC (strain KP1159 Klebsiella pneumoniae (SHV-1(2b); CTX-M-15; IMP-4)) was “Z (MIC of greater than 10 μg/mL)”. The MIC (strain KP1160 Klebsiella pneumoniae (SHV-28(2be); CTX-M-15; IMP-26)) was “Z (MIC of greater than 10 μg/mL)”, the MIC (strain KP1161 Klebsiella pneumoniae (NDM-1)) was “Z (MIC of greater than 10 μg/mL)” and the MIC (strain KP1164 Klebsiella pneumoniae (SHV-12(2be); VIM-1)) was “Z (MIC of greater than 10 μg/mL)”. For the same compound, the MIC (strain KP1165 Klebsiella pneumoniae (SHV-11(2b); CTX-M-15; VIM-27)) was “Z (MIC of greater than 10 μg/mL)”, the MIC (strain KP1166 Klebsiella pneumoniae (SHV-5(2be); VIM-26)) was “Z (MIC of greater than 10 μg/mL)” and the MIC (strain KP1167 Klebsiella pneumoniae (SHV-12(2be); VIM-1)) was “X (MIC of less than 1 μg/mL)”. For the same compound, the MIC (strain KP1169 Klebsiella pneumoniae (SHV-11(2b); VIM-1)) was “Z (MIC of greater than 10 μg/mL)”, the MIC (strain KP1170 Klebsiella pneumoniae (SHV-11(2b); CTX-M-15; NDM-1)) was “Z (MIC of greater than 10 μg/mL)” and the MIC (strain KP1172 Klebsiella pneumoniae (SHV-31(2be); DHA-1; VIM-1)) was “Z (MIC of greater than 10 μg/mL)”. For the same compound, the MIC (strain KP1173 Klebsiella pneumoniae (TEM-33(2br); CTX-M-15; IMP-1)) was “Y (MIC of 1 μg/mL to 10 μg/mL)”, the MIC (strain KP1174 Klebsiella pneumoniae (CTX-M-14; IMP-1)) was “Z (MIC of greater than 10 μg/mL)” and the MIC (strain KP1175 Klebsiella pneumoniae (SHV-OSBL(2b); VIM-1)) was “Z (MIC of greater than 10 μg/mL)”. The MIC (strain KP1177 Klebsiella pneumoniae (SHV-OSBL(2b), TEM-OSBL(2b); CTX-M-15; NDM-1)) was “Z (MIC of greater than 10 μg/mL)”, the MIC (strain KP1178 Klebsiella pneumoniae (SHV-OSBL(2b;) TEM-OSBL(2b); CTX-M-15; NDM-1)) was “Z (MIC of greater than 10 μg/mL)” and the MIC (strain KP1179 Klebsiella pneumoniae (SHV-12(2be), TEM-OSBL(2b); CTX-M-15; NDM-7)) was “Z (MIC of greater than 10 μg/mL)”. The MIC (strain KP1180 Klebsiella pneumoniae (SHV-OSBL(2b), TEM-OSBL(2b); CTX-M-15; DHA-1; IMP-26)) was “Y (MIC of 1 μg/mL to 10 μg/mL)”, the MIC (strain KP1181 Klebsiella pneumoniae (SHV-OSBL(2b); CTX-M-15; IMP-26)) was “Y (MIC of 1 μg/mL to 10 μg/mL)” and the MIC (strain KP1183 Klebsiella pneumoniae (SHV-OSBL(2b), TEM-OSBL(2b); CTX-M-15; NDM-1)) was “Z (MIC of greater than 10 μg/mL)”. For the same compound, the MIC (strain KP1184 Klebsiella pneumoniae (SHV-OSBL(2b); IMP-1)) was “Y (MIC of 1 μg/mL to 10 μg/mL)”, the MIC (strain KP1185 Klebsiella pneumoniae (SHV-OSBL(2b), TEM-OSBL(2b); IMP-4)) was “Z (MIC of greater than 10 μg/mL)” and the MIC (strain KP1186 Klebsiella pneumoniae (CTX-M-15; NDM-1)) was “Z (MIC of greater than 10 μg/mL)”. The MIC (strain KP1187 Klebsiella pneumoniae (SHV-55(2be), TEM-OSBL(2b); CTX-M-15; NDM-1)) was “Z (MIC of greater than 10 μg/mL)”, the MIC (strain KP1188 Klebsiella pneumoniae (SHV-OSBL(2b); CTX-M-15; NDM-1)) was “Z (MIC of greater than 10 μg/mL)” and the MIC (strain KP1189 Klebsiella pneumoniae (TEM-OSBL(2b); CTX-M-15; CTX-M-27; NDM-1)) was “Z (MIC of greater than 10 μg/mL)”. For the same compound, the MIC (strain KPM1123 Klebsiella pneumoniae (KPC-2 TEM SHV)) was “Y (MIC of 1 μg/mL to 10 μg/mL)”, the MIC (strain KPM1202 Klebsiella pneumoniae (KPC SHV TEM)) was “Y (MIC of 1 μg/mL to 10 μg/mL)” and the MIC (strain KPM1203 Klebsiella pneumoniae (KPC SHV TEM)) was “Y (MIC of 1 μg/mL to 10 μg/mL)”. For the same compound, the MIC (strain KPM1344 Klebsiella pneumoniae (VIM-1)) was “Y (MIC of 1 μg/mL to 10 μg/mL)”, the MIC (strain KPM1345 Klebsiella pneumoniae (VIM-1 SHV)) was “Z (MIC of greater than 10 μg/mL)” and the MIC (strain KPM1347 Klebsiella pneumoniae (NDM-1 SHV CTX-M-15)) was “Z (MIC of greater than 10 μg/mL)”. The MIC (strain KX1017 Klebsiella oxytoca (KPC-2, OXA-2, SHV-30)) was “Y (MIC of 1 μg/mL to 10 μg/mL)”, the MIC (strain KX1018 Klebsiella oxytoca (KPC-2, SHV-40, OXY-1)) was “Y (MIC of 1 μg/mL to 10 μg/mL)” and the MIC (strain KX1019 Klebsiella oxytoca (KPC-2, OXA-2)) was “Y (MIC of 1 μg/mL to 10 μg/mL)”. The MIC (strain PM1024 Proteus mirabilis (TEM-1(2b); CMY-16; VIM-1)) was “Z (MIC of greater than 10 μg/mL)”, the MIC (strain PM1026 Proteus mirabilis (DHA-1; IMP-26)) was “Z (MIC of greater than 10 μg/mL)” and the MIC (strain PM1027 Proteus mirabilis (VIM-5)) was “Y (MIC of 1 μg/mL to 10 μg/mL)”. The MIC (strain SM1023 Serratia marcescens (VIM-4)) was “Z (MIC of greater than 10 μg/mL)”.
